Results on 3 compounds are retold here after patent US7351701B2, “Therapeutic compounds” (Cancer Research Technology Limited, priority 2004, dated 2008).

Like-named read-outs stand apart in the source and are kept apart here.

The subject of one data set is IrS ISF cell line. Description: cells. The format is cell-based. Conditions: Cricetulus griseus, 24 h, read-out: LC50 (the concentration of the active component that kills 50% of the cells). An excerpt: The AA8, irs1SF and CXR3 cell lines were provided by Larry Thompson.
Toxicity Assay—Clonogenic Survival Assay

The nature of data set [1]: Plasma and tumour concentrations in mice bearing SW620 xenografts after intraperitoneal administration. The format is in vivo.
Data set [2] addresses T1, PARP (Homo sapiens, UniProt P09874).
T1 construct: PARP activity in tumour homogenates (1 in 40 in isotonic buffer) from formula III-treated mice; from tissue; host or cells: homogenates of SW620 xenograft tumours grown in mice
Kind of data set: PARP activity in SW620 xenograft tumour homogenates from formula III-treated mice ([32P] NAD+ incorporation). The format is in vivo. Conditions: 10 mg/kg intraperitoneal. How it is done: FIG. 7 is a bar chart showing the pharmacokinetics and pharmacodynanics with formula III in mice bearing SW620 xenografts;
(§1) Exponentially growing cells were exposed to 1% DMSO in culture medium (control) or a compound of formula I or III in 1% DMSO at the concentrations indicated in FIG. 4 to cells permeabilised with digitonin, or intact cells for 20 minutes prior to washing and digitonin-permeabilization. PARP activity was measured by incorporation of a [32P] labelled NAD+ substrate into TCA precipitateble polymers after stimulation by the addition of a blunt-ended oligonucleotide and compared with non-oligonucleotide-stimulated cells. PARP activity in tumour homogenates (1 in 40 in isotonic buffer) from formula III-treated mice was measured in the same way. PARP activity in pbls and tumour homogenates from formula I-phospate treated mice was measured by immunological detection of polymer using the 10H antibody. […] The poly(ADP-ribose) (PAR) polymer formation was quantified by chemiluminescence detection using a Fuji LAS3000 UV Illuminator by reference to serial dilutions of a PAR standard, following incubation with 10H antibody to PAR and a secondary anti-mouse antibody. The results were standardised by reference to the measured protein content of the homogenate.

In a further data set the test system is SW620 xenografts. Description: Tumour growth (median relative tumour volume) in mice bearing SW620 xenografts. The format is in vivo. From the text: FIG. 8 is a graph showing the tumour growth (median relative tumour volume) in mice bearing SW620 xenografts following treatment with formula III in combination with temozolomide (TMZ) and with TMZ alone;
FIG. 9 is a graph showing the tumour growth (median relative tumour volume) of mice bearing SW620 xenografts following treatment with formula I-phosphate in combination with temozolomide (TMZ) and with formula I-phosphate and TMZ alone;
However, shortly after this time the tumour size begins to increase.

Data set [3] concerns VC8 cell line. Description: Clonogenic survival assay, VC8 cell line (lacks BRCA2).
Experimental: (§4) All cell lines in this study were grown in Dulbecco's modified Eagle's Medium (DMEM) with 10% Foetalbovine serum and penicillin (100 U/ml) and steptomycin sulphate (100 μg/mL) at 37° C. under an atmosphere containing 5% CO2.
(§5) The cells were harvested by trypsinisation, counted and seeded at varying densities in 10 cm dishes in fresh medium in the absence of drug for colony formation.
(§6) 7-10 days later the dishes were fixed with methanol:acetic acid 3:1 and stained with 0.4% crystal violet.
(§7) Colonies were counted and the survival relative to 1% DMSO control treated cells calculated.
The target of data set [4] is T2, PARP (Mus musculus, UniProt P11103). Kind of data set: PARP activity assay in digitonin-permeabilised L1210 cells. The format is cell-based. The arrangement: endogenous in cells; host or cells: L1210 cells, digitonin-permeabilised. The settings on record: L1210 cells permeabilised prior to adding the inhibitor. On the procedure: (§2) Exponentially growing cells were exposed to 1% DMSO in culture medium (control) or a compound of formula I or III in 1% DMSO at the concentrations indicated in FIG. 4 to cells permeabilised with digitonin, or intact cells for 20 minutes prior to washing and digitonin-permeabilization. PARP activity was measured by incorporation of a [32P] labelled NAD+ substrate into TCA precipitateble polymers after stimulation by the addition of a blunt-ended oligonucleotide and compared with non-oligonucleotide-stimulated cells. PARP activity in tumour homogenates (1 in 40 in isotonic buffer) from formula III-treated mice was measured in the same way. PARP activity in pbls and tumour homogenates from formula I-phospate treated mice was measured by immunological detection of polymer using the 10H antibody. Briefly, tumour homogenates diluted to up to 1:1000 in isotonic buffer were incubated with 350 μM NAD for 6 min and blotted onto nitrocellulose membrane. The poly(ADP-ribose) (PAR) polymer formation was quantified by chemiluminescence detection using a Fuji LAS3000 UV Illuminator by reference to serial dilutions of a PAR standard, following incubation with 10H antibody to PAR and a secondary anti-mouse antibody.
T2 sequence (P11103 whole entry): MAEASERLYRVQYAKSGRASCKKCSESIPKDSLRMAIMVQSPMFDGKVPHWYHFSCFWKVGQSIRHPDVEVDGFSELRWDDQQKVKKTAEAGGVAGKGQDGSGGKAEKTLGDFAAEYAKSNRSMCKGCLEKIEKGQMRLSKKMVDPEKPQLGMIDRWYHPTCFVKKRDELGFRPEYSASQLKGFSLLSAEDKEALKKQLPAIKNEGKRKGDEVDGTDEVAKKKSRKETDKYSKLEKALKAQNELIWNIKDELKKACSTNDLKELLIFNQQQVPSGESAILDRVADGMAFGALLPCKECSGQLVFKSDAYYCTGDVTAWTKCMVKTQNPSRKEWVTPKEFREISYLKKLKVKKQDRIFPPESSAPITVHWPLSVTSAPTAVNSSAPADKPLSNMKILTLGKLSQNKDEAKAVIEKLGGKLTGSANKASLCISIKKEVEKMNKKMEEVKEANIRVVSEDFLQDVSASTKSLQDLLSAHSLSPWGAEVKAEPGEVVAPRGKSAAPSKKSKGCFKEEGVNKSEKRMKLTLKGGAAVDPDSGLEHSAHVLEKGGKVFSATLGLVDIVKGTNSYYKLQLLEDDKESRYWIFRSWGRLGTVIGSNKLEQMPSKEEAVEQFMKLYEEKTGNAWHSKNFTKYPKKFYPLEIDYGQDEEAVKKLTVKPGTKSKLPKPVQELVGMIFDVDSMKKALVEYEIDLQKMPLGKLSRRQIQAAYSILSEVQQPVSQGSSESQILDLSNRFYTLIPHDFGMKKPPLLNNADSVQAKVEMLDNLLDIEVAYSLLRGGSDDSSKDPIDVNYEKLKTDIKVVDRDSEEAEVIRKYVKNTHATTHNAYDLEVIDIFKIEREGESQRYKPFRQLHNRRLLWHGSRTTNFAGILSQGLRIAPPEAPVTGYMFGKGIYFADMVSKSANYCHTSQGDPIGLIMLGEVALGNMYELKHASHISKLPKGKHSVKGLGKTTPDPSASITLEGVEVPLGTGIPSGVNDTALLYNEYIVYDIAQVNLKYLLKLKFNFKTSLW

The subject of data set [5] is VC8 cell line. The settings on record: hamster, 24 h.
Experimental: as §4, §5, §6, §7
Data set [6] concerns the target T2, PARP. Kind of data set: PARP activity assay in intact L1210 cells (20 minutes exposure before permeabilisation). The format is cell-based. The arrangement: endogenous in cells; host or cells: L1210 cells, digitonin-permeabilised. The settings on record: exposed 20 minutes prior to permeabilisation. On the procedure:
as §2

The nature of data set [7]: Solubility of the phosphate salt. The format is physicochemical. Conditions: phosphate salt vs parent compound.
For data set [8], the target named is T1, PARP. Description: PARP activity in SW620 xenograft tumour homogenates after formula I-phosphate (10H antibody detection). The format is in vivo, mice. On the procedure: (§3) FIG. 6 is a pair of bar charts showing the blood and tumour pharmacokinetics and pharmacodynamics with formula I-phosphate at 1 mg/kg (upper) and 10 mg/kg (lower) in mice bearing SW620 xenografts;
as §1, with “antibody.” for “antibody. The results were standardised by reference to the measured protein content of the homogenate.”

For data set [9], the target named is T2, PARP. Description: PARP activity in mouse peripheral blood lymphocytes after formula I-phosphate (10H antibody detection). The format is in vivo. The arrangement: PARP activity in pbls and tumour homogenates from formula I-phospate treated mice; from tissue; host or cells: peripheral blood lymphocytes of treated mice. The settings on record: 10 mg/kg intraperitoneal, up to 24 hr. On the procedure: as §3
as §1, with “antibody.” for “antibody. The results were standardised by reference to the measured protein content of the homogenate.”

The mark [10] stands for this setting: 10 mg/kg intraperitoneal, SW620 xenograft.

T1 sequence (P09874 whole entry): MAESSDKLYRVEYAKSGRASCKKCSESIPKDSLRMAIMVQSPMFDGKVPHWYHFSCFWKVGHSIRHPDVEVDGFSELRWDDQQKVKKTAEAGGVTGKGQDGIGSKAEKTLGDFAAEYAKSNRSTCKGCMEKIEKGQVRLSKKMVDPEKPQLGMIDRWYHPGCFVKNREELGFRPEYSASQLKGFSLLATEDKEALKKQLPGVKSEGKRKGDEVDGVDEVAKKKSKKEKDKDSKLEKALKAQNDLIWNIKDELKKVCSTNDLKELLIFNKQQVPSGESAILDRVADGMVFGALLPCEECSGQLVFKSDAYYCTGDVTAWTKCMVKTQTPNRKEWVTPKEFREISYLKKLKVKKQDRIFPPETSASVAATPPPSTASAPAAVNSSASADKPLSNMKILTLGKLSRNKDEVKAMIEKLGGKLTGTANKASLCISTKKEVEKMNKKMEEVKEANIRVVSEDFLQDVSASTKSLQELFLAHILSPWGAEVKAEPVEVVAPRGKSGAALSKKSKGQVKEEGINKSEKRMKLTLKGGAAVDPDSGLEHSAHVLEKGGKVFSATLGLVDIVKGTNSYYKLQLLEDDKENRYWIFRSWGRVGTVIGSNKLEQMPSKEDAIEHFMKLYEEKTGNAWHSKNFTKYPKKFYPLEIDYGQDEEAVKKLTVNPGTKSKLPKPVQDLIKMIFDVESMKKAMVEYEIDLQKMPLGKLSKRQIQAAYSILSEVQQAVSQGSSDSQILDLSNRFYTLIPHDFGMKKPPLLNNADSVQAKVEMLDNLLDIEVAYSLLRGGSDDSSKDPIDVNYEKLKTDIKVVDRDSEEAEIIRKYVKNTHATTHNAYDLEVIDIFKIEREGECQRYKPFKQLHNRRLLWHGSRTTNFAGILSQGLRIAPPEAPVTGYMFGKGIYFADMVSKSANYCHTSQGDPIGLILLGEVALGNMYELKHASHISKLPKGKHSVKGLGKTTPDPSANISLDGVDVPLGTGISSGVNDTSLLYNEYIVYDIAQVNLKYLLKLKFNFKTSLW

Turning to `CN(C)Cc1ccc(-c2nc3cccc4c3n2CCNC4=O)cc1` [Formula III], the CC50 in the data set on IrS ISF cell line was 100 nM; in the data set on VC8 cell line [3] (read-out: LC50), 43 nM. In addition, in [1] (setting [10]), the distribution to tumour result is “distributes well to the tumour”. Further, the “retention in tumour relative to plasma with time” value in data set [1] (setting [10]) is given as “preferentially retained with time”. For the same compound, the “PARP activity in the tumour” value at PARP [2] is recorded as “inhibits PARP activity in the tumour”. For the same compound, the “time over which tumour shrinks to an undetectable size” value in the data set on SW620 xenografts (formula III 5 mg/kg daily×5 with temozolomide 68 mg/kg daily×5) is “around 15 days”. Further, the “further time tumour size remains undetectable” value was determined as 50 days in the data set with SW620 xenografts (formula III 5 mg/kg daily×5 with temozolomide 68 mg/kg daily×5, then begins to increase) and 80 days in the data set on SW620 xenografts (formula III 15 mg/kg daily×5 with temozolomide, until the end of the experiment). Further, the “tumour outcome at autopsy” value with SW620 xenografts (formula III 15 mg/kg daily×5 with temozolomide, end of the experiment) is listed as “complete tumour regression”. Also, in the data set with VC8 cell line [3], the “LC90 (concentration of active component that kills 90% of the cells)” value is given as 1200 nM. Also, the “PARP inhibitory activity, formula I compared with formula III” value on PARP [4] is reported as “no difference”.
`CNCc1ccc(-c2[nH]c3cc(F)cc4c3c2CCNC4=O)cc1` [Formula I] returned a CC50 in the data set with VC8 cell line [5] of 12 nM. Also, in the data set on VC8 cell line [3], the “LC90 (concentration of active component that kills 90% of the cells)” value is 27 nM. Besides, the “PARP inhibitory activity, formula I compared with formula III” value was “no difference” at PARP [4] and “more potent in intact cells” at PARP [6].
For `CNCc1ccc(-c2[nH]c3cc(F)cc4c3c2CCNC4=O)cc1.O=P(O)(O)O` [formula I-phosphate], the “solubility relative to formula I” value in data set [7] is listed as “increases the solubility”. Also, the “levels of formula I in plasma and tumour” value in [1] (1 mg/kg intraperitoneal, compared with 10 mg/kg) is listed as “lower levels”. Also, the “plasma concentration of parent compound formula I” value in data set [1] (10 mg/kg intraperitoneal, 24 hr after administration) is reported as “none could be detected”; in data set [1] (10 mg/kg intraperitoneal, thirty minutes after administration), “highlevels”. Also, the “tumour concentration of parent compound formula I” value is given as “significant levels were detectable” in data set [1] (10 mg/kg intraperitoneal, 24 hr after administration, SW620 xenograft) and “highlevels” in [1] (10 mg/kg intraperitoneal, thirty minutes after administration, SW620 xenograft). In addition, the “effect on PARP activity” value on PARP [8] (1 mg/kg intraperitoneal, compared with 10 mg/kg, pbls and tumour) was “less pronounced effect”. For the same compound, at PARP [8] (10 mg/kg intraperitoneal, up to 24 hr, SW620 xenograft), the “PARP activity in tumour” value was less than 50 % control. For the same compound, the “PARP activity in pbls” value on PARP [9] is listed as less than 50 % control.
